Key:
male OF1 mice = experiment: test for analgesia: PBQ (phenylbenzoquinone)-induced abdominal tractions; assay type: in vivo; conditions: 10 mg/kg p.o.
Protocol: The in vivo activity of the compounds of the invention was evaluated in a test for analgesia. Thus, the intraperitoneal (i.p.) administration of PBQ (phenylbenzoquinone, 2 mg/kg in a 0.9% sodium chloride solution comprising 5% of ethanol) to male OF1 mice weighing 25 to 30 g causes abdominal tractions, on average 30 twisting or contracting motions during the period from 5 to 15 minutes after injection. The test compounds are administered, orally (p.o.) or intraperitoneally (i.p.) in suspension in 0.5% Tween 80, 60 minutes or 120 minutes before the administration of PBQ. Under these conditions, the most powerful compounds of the invention reduce by 35 to 70% the number of tractions induced by the PBQ, within a range of doses of between 1 and 30 mg/kg.

[1] = biological target: T1, enzyme FAAH (Fatty Acid amido Hydrolase) (Mus musculus, UniProt O08914); experiment: radioenzymatic test of FAAH inhibition (hydrolysis of ((1-3H)ethanolamine)-anandamide by mouse brain membrane homogenates); assay type: biochemical; conditions: 10 μM anandamide, 15 minutes at 25° C., read-out: IC50 (concentration which inhibits the control enzymatic activity of FAAH by 50%)
T1 construct: The membrane homogenates are prepared at the time of use by homogenization of the tissues with a Polytron; from tissue; host or cells: mouse brain (minus the cerebellum), membrane homogenate
T1 sequence (O08914 1-579): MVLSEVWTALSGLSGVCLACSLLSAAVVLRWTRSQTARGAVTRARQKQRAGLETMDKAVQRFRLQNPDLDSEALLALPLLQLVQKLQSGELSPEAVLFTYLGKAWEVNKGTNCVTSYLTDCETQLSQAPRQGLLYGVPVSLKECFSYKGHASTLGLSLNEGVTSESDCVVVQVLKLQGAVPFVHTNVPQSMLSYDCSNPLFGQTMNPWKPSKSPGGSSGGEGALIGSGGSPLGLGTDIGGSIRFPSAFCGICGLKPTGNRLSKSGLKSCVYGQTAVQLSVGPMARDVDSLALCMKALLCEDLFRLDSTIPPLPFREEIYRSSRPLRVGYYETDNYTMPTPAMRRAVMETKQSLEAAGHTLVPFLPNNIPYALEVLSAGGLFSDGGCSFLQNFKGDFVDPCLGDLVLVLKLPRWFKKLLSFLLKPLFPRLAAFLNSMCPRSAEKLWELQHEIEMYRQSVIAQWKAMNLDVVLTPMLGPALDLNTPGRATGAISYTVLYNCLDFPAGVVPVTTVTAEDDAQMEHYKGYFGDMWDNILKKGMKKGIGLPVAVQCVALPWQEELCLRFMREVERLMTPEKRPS
Protocol: The compounds of the invention have formed the subject of pharmacological trials which make it possible to determine their inhibitory effect on the enzyme FAAH (Fatty Acid amido Hydrolase).
Thus, mouse brains (minus the cerebellum) are removed and stored at −80° C. The membrane homogenates are prepared at the time of use by homogenization of the tissues with a Polytron in a 10 mM Tris-HCl buffer (pH 8.0) comprising 150 mM NaCl and 1 mM EDTA. The enzymatic reaction is subsequently carried out in 70 μl of buffer comprising bovine serum albumin free from fatty acids (1 mg/ml). The test compounds, at various concentrations, the ((1-^3H)ethanolamine)-anandamide (specific activity of 15-20 Ci/mmol), diluted to 10 μM with non-radiolabelled anandamide, and the membrane preparation (400 μg of frozen tissue per assay) are successively added. After 15 minutes at 25° C., the enzymatic reaction is halted by addition of 140 μl of chloroform/methanol (2:1). The mixture is stirred for 10 minutes and is then centrifuged at 3500 g for 15 minutes. An aliquot (30 μl) of the aqueous phase comprising the (1-^3H)ethanolamine is counted by liquid scintillation.

melting point [°C]	SMILES	other results
130 to 132	CNC(=O)COC(=O)NCCc1ccc(-c2ccccc2)nc1 [Compound 3, 2-(methylamino)-2-oxoethyl 2-(6-phenylpyrid-3-yl)ethylcarbamate]	–
147 to 149	CNC(=O)COC(=O)NCCCc1cc(-c2ccc(Cl)cc2)ncn1 [Compound 20, 2-(methylamino)-2-oxoethyl 3-[6-(4-chlorophenyl)pyrimidin-4-yl]propylcarbamate]	–
158 to 160	CNC(=O)COC(=O)NCCCc1cc(-c2ccc(Cl)cc2)no1 [Compound 29, 2-(methylamino)-2-oxoethyl 3-[3-(4-chlorophenyl)isoxazol-5-yl]propylcarbamate]	–
198 to 200	CNC(=O)COC(=O)NCCCc1cc(-c2ccc(-c3ccccc3)cc2)no1 [Compound 30, 2-(methylamino)-2-oxoethyl 3-[3-(4-phenylphenyl)isoxazol-5-yl]propylcarbamate]	–
124 to 126	NC(=O)COC(=O)NCCCCc1ccncc1 [Compound 37, 2-amino-2-oxoethyl 4-(pyrid-4-yl)butylcarbamate]	–
–	CNC(=O)COC(=O)NCCCCc1cc(-c2ccc(Cl)cc2)no1 [Compound 48, 2-(methylamino)-2-oxoethyl 4-[3-(4-chlorophenyl)isoxazol-5-yl]butylcarbamate]	reduction of the number of tractions induced by the PBQ (male OF1 mice; administered 60 minutes before PBQ): 53%; reduction of the number of tractions induced by the PBQ (male OF1 mice; administered 120 minutes before PBQ): 62%
64 to 67	CNC(=O)COC(=O)NCCCCn1ccc2ccccc21 [Compound 56, 2-(methylamino)-2-oxoethyl 4-(1H-indol-1-yl)butylcarbamate]	–
52 to 54	CNC(=O)COC(=O)NCCCCn1ccc2cccnc21 [Compound 58, 2-(methylamino)-2-oxoethyl 4-(1H-pyrrolo[2,3-b]pyrid-1-yl)butylcarbamate]	–
–	NC(=O)COC(=O)NCCCCCc1cncc2ccccc12 [Compound 68, 2-amino-2-oxoethyl 5-(isoquinolin-4-yl)pentylcarbamate]	IC50 [1]: 267 nM
105 to 108	NC(=O)COC(=O)NCCCC#Cc1cccc2ccccc12 [Compound 71, 2-amino-2-oxoethyl [5-(naphth-1-yl)pent-4-yn-1-yl]carbamate]	–
